Measurements published in patent US8614182B2 (Jiangsu Hansoh Pharmaceuticals Co., Ltd., priority 2009, dated 2013).
Non-standard residues stand in square brackets, D forms with d. Residues, ends and D or L forms follow the SMILES beside them. *: point of attachment. εLys(Nα-Palmitoyl) = CCCCCCCCCCCCCCCC(=O)N[C@@H](CCCCN*)C(=O)O

How the values were obtained:
[1] = system: db/db mice with type 2 diabetes; assay: Random blood glucose of db/db mice after single subcutaneous injection; format: in vivo; conditions: for random blood glucose: n = 8; for decrease rate of random blood glucose: versus control group
Description: db/db mice with type 2 diabetes were divided into six groups based on a random blood glucose and body weight (8 per group). […] The random blood glucose of the mice is determined at differete time after administration.
Preparation method: 1 bottle of the compound (2 mg/bottle) was dissolved with double-distilled water to prepare a colorless and transparent solution of which the concentration is 2 mg/mL. […] “ACCU-CHEK® Advantage” blood glucose meter form Roche was used to determine the blood glucose.
Route and volume of administration: Single subcutaneous injection dose, dose volume was 5 mL/kg. […]
The random blood glucoses of db/db mice were measured.
Each group has 8 mice, half male and half female. The animals of each group were administered with the test compounds or solvent control respectively through single subcutaneous injection.

[2] = target: T1, Glucagon-like peptide-1 receptor (GLP1R) (Homo sapiens, UniProt P43220); assay: Agonist activity on GLP1R, cAMP response element luciferase reporter gene in HEK293 cells; format: cell-based; conditions: HEK293 cells stably transfected with GLP1R and pCRE-Luc, 5 hours incubation; read-out: Maximum reaction rate
T1 construct: expressed in transfected cells; host or cells: HEK293
T1 sequence (P43220 24-463, species assumed): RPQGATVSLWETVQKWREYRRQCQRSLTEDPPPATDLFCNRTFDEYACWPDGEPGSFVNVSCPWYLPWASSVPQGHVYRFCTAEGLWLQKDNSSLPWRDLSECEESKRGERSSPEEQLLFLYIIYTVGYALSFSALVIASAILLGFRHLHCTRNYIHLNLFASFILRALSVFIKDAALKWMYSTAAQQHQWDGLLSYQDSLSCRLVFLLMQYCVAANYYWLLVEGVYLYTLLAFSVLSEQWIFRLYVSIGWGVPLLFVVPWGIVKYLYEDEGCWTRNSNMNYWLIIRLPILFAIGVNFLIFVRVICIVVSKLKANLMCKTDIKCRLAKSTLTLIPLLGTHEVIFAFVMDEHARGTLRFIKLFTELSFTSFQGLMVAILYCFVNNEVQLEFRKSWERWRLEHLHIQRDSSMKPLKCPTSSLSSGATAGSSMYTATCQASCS
From the text: GLP1R is a receptor coupled with Gs protein, of which the binding with the agonists will result in an increase of intracellular cAMP concentration. In the present experiment, GLP1R and the luciferase reporter gene plasmid regulated by cAMP response elements are co-transfected into HEK293 cells. When the compound binds to the receptor and activates the receptors, the expression of the luciferase will increase. The activation status of the compound to GLP1R can be learned by testing the activity of the luciferase.
2. The compounds or positive drugs having a certain concentration gradient were added (3 wells per concentration) and incubated at 37° C. for 5 hours. The negative control was solvent DMSO.
3. 50 μl culture medium was taken from each well, and 50 μl of the luciferase substrate were added and vortexed for 10 minutes.
4. 80 μl reaction solution was taken and transferred to a white 96 well plate, then detected on the Invision microplate reader (enzyme-labelling measuring instrument).

CCCCCCCCCCCCCCCC(=O)N[C@@H](CCCCNC(=O)[C@H](CO)NC(=O)[C@@H]1CCCN1C(=O)[C@@H]1CCCN1C(=O)[C@@H]1CCCN1C(=O)[C@H](C)NC(=O)CNC(=O)[C@H](CO)NC(=O)[C@H](CO)NC(=O)[C@@H]1CCCN1C(=O)CNC(=O)CNC(=O)[C@H](CCCNC(=N)N)NC(=O)[C@@H](NC(=O)[C@H](CC(C)C)NC(=O)[C@H](Cc1c[nH]c2ccccc12)NC(=O)[C@H](C)NC(=O)[C@@H](NC(=O)[C@H](Cc1ccccc1)NC(=O)[C@H](CCC(=O)O)NC(=O)[C@H](CCCCN)NC(=O)[C@H](C)NC(=O)[C@H](C)NC(=O)[C@H](CCC(=O)O)NC(=O)[C@H](CCC(=O)O)NC(=O)[C@H](CCC(=O)O)NC(=O)[C@H](CC(C)C)NC(=O)[C@H](Cc1ccc(O)cc1)NC(=O)[C@H](CO)NC(=O)[C@H](CO)NC(=O)[C@@H](NC(=O)[C@H](CC(=O)O)NC(=O)[C@H](CO)NC(=O)[C@@H](NC(=O)[C@H](Cc1ccccc1)NC(=O)[C@@H](NC(=O)CNC(=O)[C@H](CCC(=O)O)NC(=O)[C@@H](C)NC(=O)[C@@H](N)Cc1c[nH]cn1)[C@@H](C)O)[C@@H](C)O)C(C)C)[C@@H](C)CC)C(C)C)C(=O)O [HS-20003] (H-H[dA]EGTFTSDVSSYLEEEAAKEFIAWLVRGGPSSGAPPPS-{εLys(Nα-Palmitoyl)}; N-terminus and C-terminus assumed)
random blood glucose ([1]; 3 μg/kg single s.c., 1 h after administration, X ± s): 19.56 ± 1.19 mmol/L | decrease rate of random blood glucose ([1]; 3 μg/kg single s.c., 1 h after administration): 17.33% | random blood glucose ([1]; 3 μg/kg single s.c., 2 h after administration, X ± s): 19.44 ± 1.48 mmol/L | decrease rate of random blood glucose ([1]; 3 μg/kg single s.c., 2 h after administration): 14.09% | random blood glucose ([1]; 3 μg/kg single s.c., 4 h after administration, X ± s): 19.63 ± 1.12 mmol/L | decrease rate of random blood glucose ([1]; 3 μg/kg single s.c., 4 h after administration): 10.80% | random blood glucose ([1]; 3 μg/kg single s.c., 8 h after administration, X ± s): 22.59 ± 1.05 mmol/L | decrease rate of random blood glucose ([1]; 3 μg/kg single s.c., 8 h after administration): 11.03% | random blood glucose values compared with those of the control group ([1]; 3 μg/kg single s.c., after 2 h, 4 h and 8 h): no significant difference | random blood glucose values compared with those of the control group ([1]; 3 μg/kg single s.c., after one hour, P<0.05): decreased significantly | random blood glucose ([1]; 3 μg/kg single s.c., before administration, X ± s): 25.16 ± 1.49 mmol/L | decrease rate of random blood glucose ([1]; 10 μg/kg single s.c., 1 h after administration): 23.62% | random blood glucose ([1]; 10 μg/kg single s.c., 1 h after administration, ± s): 20.74 ± 0.98 mmol/L | decrease rate of random blood glucose ([1]; 10 μg/kg single s.c., 2 h after administration): 25.93% | random blood glucose ([1]; 10 μg/kg single s.c., 2 h after administration, ± s): 21.10 ± 0.80 mmol/L | decrease rate of random blood glucose ([1]; 10 μg/kg single s.c., 4 h after administration): 36.49% | random blood glucose ([1]; 10 μg/kg single s.c., 4 h after administration, ± s): 19.54 ± 1.80 mmol/L | decrease rate of random blood glucose ([1]; 10 μg/kg single s.c., 8 h after administration): 26.12% | random blood glucose ([1]; 10 μg/kg single s.c., 8 h after administration, ± s): 22.14 ± 2.16 mmol/L | decrease rate of random blood glucose ([1]; 10 μg/kg single s.c., 24 h after administration): 11.89% | random blood glucose ([1]; 10 μg/kg single s.c., 24 h after administration, ± s): 24.45 ± 1.55 mmol/L | random blood glucose values compared with those of the control group ([1]; 10 μg/kg single s.c., after 2 h, 4 h and 8 h): still keep at a lower level | random blood glucose values compared with those of the control group ([1]; 10 μg/kg single s.c., after 24 hours): no significant difference | random blood glucose values compared with those of the control group ([1]; 10 μg/kg single s.c., after one hour, P<0.01): decreased significantly | random blood glucose ([1]; 10 μg/kg single s.c., before administration, ± s): 23.20 ± 1.36 mmol/L | random blood glucose level (words, test conclusions) ([1]; single s.c., dose of 3 μg/kg (so in the source)): decreased obviously | Emax [2]: 87.9%

CCCCCCCCCCCCCCCC(=O)N[C@@H](CCCCNC(=O)[C@H](CO)NC(=O)[C@@H]1CCCN1C(=O)[C@@H]1CCCN1C(=O)[C@@H]1CCCN1C(=O)CNC(=O)CNC(=O)[C@H](CCCCN)NC(=O)[C@H](CCCCN)NC(=O)CNC(=O)[C@H](CCCNC(=N)N)NC(=O)CNC(=O)[C@H](CCCCN)NC(=O)[C@@H](NC(=O)[C@H](CC(C)C)NC(=O)[C@H](Cc1c[nH]c2ccccc12)NC(=O)[C@@H](NC(=O)[C@@H](NC(=O)[C@H](Cc1ccccc1)NC(=O)[C@H](CCC(=O)O)NC(=O)[C@H](C)NC(=O)[C@H](C)NC(=O)[C@H](CCC(N)=O)NC(=O)CNC(=O)[C@H](CCC(=O)O)NC(=O)[C@H](CC(C)C)NC(=O)[C@H](Cc1ccc(O)cc1)NC(=O)[C@H](CO)NC(=O)[C@H](CO)NC(=O)[C@@H](NC(=O)[C@H](CC(=O)O)NC(=O)[C@H](CO)NC(=O)[C@@H](NC(=O)[C@H](Cc1ccccc1)NC(=O)[C@@H](NC(=O)CNC(=O)[C@H](CCC(=O)O)NC(=O)[C@H](C)NC(=O)[C@@H](N)Cc1c[nH]cn1)[C@@H](C)O)[C@@H](C)O)C(C)C)[C@@H](C)CC)C(C)C)C(C)C)C(=O)O [HS-20005]
Emax [2]: 89.1%

CCCCCCCCCCCCCCCC(=O)N[C@@H](CCCCNC(=O)[C@H](CO)NC(=O)[C@@H]1CCCN1C(=O)[C@@H]1CCCN1C(=O)[C@@H]1CCCN1C(=O)CNC(=O)CNC(=O)[C@H](CCCCN)NC(=O)[C@H](CCCCN)NC(=O)CNC(=O)[C@H](CCCNC(=N)N)NC(=O)CNC(=O)[C@H](CCCCN)NC(=O)[C@@H](NC(=O)[C@H](CC(C)C)NC(=O)[C@H](Cc1c[nH]c2ccccc12)NC(=O)[C@@H](NC(=O)[C@@H](NC(=O)[C@H](Cc1ccccc1)NC(=O)[C@H](CCC(=O)O)NC(=O)[C@H](C)NC(=O)[C@H](C)NC(=O)[C@H](CCC(N)=O)NC(=O)[C@H](CCC(=O)O)NC(=O)[C@H](CCC(=O)O)NC(=O)[C@H](CC(C)C)NC(=O)[C@H](Cc1ccc(O)cc1)NC(=O)[C@H](CO)NC(=O)[C@H](CO)NC(=O)[C@@H](NC(=O)[C@H](CC(=O)O)NC(=O)[C@H](CO)NC(=O)[C@@H](NC(=O)[C@H](Cc1ccccc1)NC(=O)[C@@H](NC(=O)CNC(=O)[C@H](CCC(=O)O)NC(=O)[C@H](C)NC(=O)[C@@H](N)Cc1c[nH]cn1)[C@@H](C)O)[C@@H](C)O)C(C)C)[C@@H](C)CC)C(C)C)C(C)C)C(=O)O [HS-20007]
Emax [2]: 87%
